Measurements published in patent US5733754A, “Enzyme and its use in preparing (S)-pipecolic acid” (Chiroscience Limited, priority 1993, dated 1998).

Tests used:
[1] = system: N-acyl-pipecolic acid acylase; test: Alternative substrates: activity of semi-purified enzyme preparation on N-acetylamino-acids; format: biochemical, Alcaligenes denitrificans; conditions: 1 ml substrate 40 g/l + 0.5 ml enzyme + 0.5 ml 100 mM Tris buffer pH 7.5; 24-25° C., 1 hour
Experimental: The sonicate supernatants were then used in the following biotransformation reactions. To 1 ml of the sonicate supernatants, 1 ml of 40 g/l solution of N-acetyl-rac-pipecolate, pH 7, was added in the presence of 0.02% sodium azide. The biotransformation reaction mixtures were incubated with shaking for 48 h at 25° C., after which samples were removed and analysed by HPLC. HPLC analysis was done using a 15 cm Hichrom S50DS2 column with an isocratic mobile phase of 30% methanol:70% 10 mM potassium phosphate buffer, pH 3, at a flow rate of 1 ml/min. The injection volume was 20 μl and the detection was at 240 nm, total run time was 10 minutes. Prior to loading on to the column, the sample was diluted 20-fold in the HPLC mobile phase and centrifuged. The analyses as shown by this procedure provided values of residual substrate concentrations. A substrate control was run in parallel with the sample reactions.
(§1) The activity of a semi-purified enzyme preparation, as described in Example 4, was tested on a range of alternative substrates. Various N-acetylamino-acid solutions were prepared at a concentration of 40 g/l in 100 mM Tris buffer at pH 7.5. Reactions were then set up using 1 ml of reaction substrate plus 0.5 ml enzyme plus 0.5 ml 100 mM Tris buffer, pH 7.5. The reaction mixtures were shaken at 24°-25° C. for 1 hour before being analysed for amino-acid formation. The extent of reaction for the N-acetylpipecolic acid and N-acetylproline biotransformations was determined using the HPLC methodology described in Example 1. The extent and enantioselectivity of the other biotransformations was determined using a Nucleosil Chiral-1 (ET250/8/4 with a buffer phase of 1 mM copper acetate at pH 5 in 5% methanol, and a flow rate of 0.8 ml/min, with detection at 254 nm. Samples were diluted 100-fold and areas compared to relevant standards.

[2] = system: N-acyl-pipecolic acid acylase (amino acylase); test: Alternative buffers: effect of high phosphate on the biotransformation; format: biochemical, Alcaligenes denitrificans; conditions: for Amino-acid formed: pH 7.5
Experimental: as §1
The acylase disclosed in EP-A-0416282 is inhibited by reaction in buffers containing phosphate at high concentrations. The effect of high phosphate on the biotransformation was determined using a similar methodology to that described in Example 6.

[3] = system: N-acylamino-acid acylase of EP-A-0416282; conditions: cited from earlier work
[4] = system: N-acetyl-pipecolic acid acylase activity; test: Use of inducer: flask cultures with additive, acylase activity of the cell extract; format: cell-based, Alcaligenes denitrificans; conditions: for Volumetric Activity / Specific (activity): additive in growth medium (5 g/l), extract used in 24 hour biotransformation of 20 g/l N-acetyl-(R,S)-pipecolic acid, 1U = release of 1 μmole pipecolic acid per minute
Experimental: It has been observed by other workers that an inducer must be added to the fermentation medium to obtain N-acyl-amino-acid acylase activity. This adds to the cost of producing the enzyme. Flask cultures were set up to determine the requirement for an inducer. Medium used was similar to that described in Table 1, except that the N-acetyl-L-phenylalanine was omitted, 1 g/l yeast extract was added and the following 4 variations were set up.
The final pH of all flasks was adjusted to pH 7.0 and a total of 50 ml added to 500 ml conical flasks. Following inoculation, the flasks were incubated at 25° C. with shaking for 19 hours. The cells were then collected by centrifugation, resuspended in 10 mM phosphate buffer, pH 7 and lysed by sonication. The released enzyme extract was then used in a 24 hour biotransformation of 20 g/l N-acetyl-(R,S)-pipecolic acid.
1U = release of 1 μmole pipecolic acid per minute

For `CC(=O)NCCCC[C@H](N)C(=O)O` [εN-acetyl-(S)-lysine], the Amino-acid formed [1] was 0.0 g/L.
In the case of phosphate, the “inhibitory effect on the amino acylase” value ([2]; final phosphate concentration equal to or greater than 75 mM) is listed as “no significant inhibitory effect” and the “inhibition of the acylase by buffer” value ([3]; buffers containing phosphate at high concentrations) is listed as “inhibited”.
In the case of `CC(=O)NC(Cc1ccc(C#N)cc1)C(=O)O` (racemic) [N-acetyl-(R,S)-4-cyanophenylalanine], the Amino-acid formed [1] is reported as 8.3 g/L.
In the case of `CC(=O)NC(C)C(=O)O` (racemic) [N-acetyl-(R,S)-alanine], the Amino-acid formed [1] is listed as 3.4 g/L and the “activity of the enzyme against substrate” value ([3]; enzyme of EP-A-0416282) is listed as “non-detectable”.
For `CC(=O)NC(Cc1ccccc1)C(=O)O` (racemic) [N-acetyl-(R,S)-phenylalanine], the Amino-acid formed [1] is given as 5.3 g/L and the “activity of the enzyme against substrate” value ([3]; enzyme of EP-A-0416282) is given as “non-detectable”.
`CC(=O)NC(CCC(=O)O)C(=O)O` (racemic) [N-acetyl-(R,S)-glutamic acid] showed an Amino-acid formed [1] of 0.2 g/L.
With `O=C[C@H](O)[C@@H](O)[C@H](O)[C@H](O)CO` [Glucose] the “N-acetyl-pipecolic acid acylase activity of the flask” value ([4]; additive 5 g/l in growth medium) was “no N-acetyl-pipecolic acid acylase activity” and the “Volumetric Activity” value [4] was 0.00 U/ml.
For N-acyl-pipecolic acid, the “activity of the enzyme relative to its activity on N-acetyl-proline” value ([3]; enzyme of EP-A-0416282) is listed as “less than 5%”.
With `CC(=O)N1CCC[C@H]1C(=O)O` [N-acetyl-(S)-proline] the “Specific (activity)” value [4] was 0.033 U/mg protein, the “Volumetric Activity” value [4] was 0.042 U/ml and the Amino-acid formed [1] was 3.2 g/L. It also gave an Amino-acid formed ([2]; 100 mM Phosphate) of 3.2 g/L and an Amino-acid formed ([2]; 100 mM Tris) of 3.2 g/L.
For `CC(=O)N1CCCCC1C(=O)O` (racemic) [N-acetyl-(R,S)-pipecolic acid], the “Specific (activity)” value [4] was 0.086 U/mg protein, the “Volumetric Activity” value [4] was 0.017 U/ml and the Amino-acid formed [1] was 6.3 g/L. The Amino-acid formed ([2]; 100 mM Phosphate) was 6.3 g/L and the Amino-acid formed ([2]; 100 mM Tris) was 6.3 g/L.
